Results taken from US10385052B2, “Tricyclic compound and JAK inhibitor” (NISSAN CHEMICAL CORPORATION, priority 2014, dated 2019).

Assays:
JAK1 = JAK1 (Homo sapiens (Human), UniProt P23458); experiment: JAK1 enzyme assay; assay type: biochemical; details: enzyme 0.5 μg/mL, ATP 70 μM
Method: (§1) The JAK inhibitory activities of compounds of the present invention were measured.
(§2) The enzymes (JAK1, JAK2, JAK3 and Tyk2) were purchased from Carna Biosciences, Inc.
(§3) As the substrate for the enzymes (hereinafter referred to as the substrate), LANCE Ultra ULight-JAK-1 (Tyr1023) Peptide (manufactured by PerkinElmer Co., Ltd.) was used.
(§4) As the antibody for detecting phosphorylation of the substrate, LANCE Ultra Europium-anti-phospho tyrosine antibody (PT66) (manufactured by PerkinElmer Co., Ltd.) was used.
(§5) The compounds of the present invention, the enzymes (JAK1, JAK2, JAK3 and Tyk2), the substrate and ATP were used for the assays after diluted with the assay buffer.
(§6) The enzyme concentrations and the ATP concentrations in the respective enzyme (JAK1, JAK2, JAK3 and Tyk2) assays were as follows.
JAK1 enzyme assay; the enzyme concentration was 0.5 μg/mL, and the ATP concentration was 70 μM.
(§7) The concentration of the substrate for the enzymes was 25 nM.
(§8) Dilute solutions of compounds and enzymes were dispensed into wells of a 384-well black plate (manufactured by Greiner bio-one) and preincubated at room temperature for 5 minutes.
(§9) Then, a dilute solution of the substrate and then a dilute solution of ATP were added, and the plate was incubated at room temperature for 30 minutes.
(§10) Then, a dilute solution of EDTA and then a dilute solution of PT66 were added, and the plate was incubated at room temperature for 1 hour.
(§11) The fluorescences were measured with ARVO-HTS, and from the plot of logarithm of a compound concentration and inhibitory activity, the IC50 value was calculated.

JAK2 = JAK2 (Homo sapiens (Human), UniProt O60674); experiment: JAK2 enzyme assay; assay type: biochemical; details: enzyme 0.013 μg/mL, ATP 10 μM
Method: as §1, §2, §3, §4, §5, §6
JAK2 enzyme assay; the enzyme concentration was 0.013 μg/mL, and the ATP concentration was 10 μM.
as §7, §8, §9, §10, §11

JAK3 = JAK3 (Homo sapiens (Human), UniProt P52333); experiment: JAK3 enzyme assay; assay type: biochemical; details: enzyme 0.020 μg/mL, ATP 3 μM
Method: as §1, §2, §3, §4, §5, §6
JAK3 enzyme assay; the enzyme concentration was 0.020 μg/mL, and the ATP concentration was 3 μM.
as §7, §8, §9, §10, §11

Tyk2 = Tyk2 (Homo sapiens (Human), UniProt P29597); experiment: Tyk2 enzyme assay; assay type: biochemical; details: enzyme 0.25 μg/mL, ATP 20 μM
Method: as §1, §2, §3, §4, §5, §6
Tyk2 enzyme assay; the enzyme concentration was 0.25 μg/mL and the ATP concentration was 20 μM.
as §7, §8, §9, §10, §11

[1] = system: cytokine signaling via JAK; experiment: Signal assay in rat whole blood (STAT phosphorylation assay); assay type: cell-based; details: T-cell; female Lewis rat whole blood, rat IL-6 100 ng/mL, phosphated STAT-1 in CD3 positive T cells
Method: 2. Signal Assay in Rat Whole Blood
The inhibitory activities of the compounds of the present invention obtained in Synthetic Examples 1 and 2 against cytokine signaling via JAK were measured by STAT phosphorylation assay using rat whole blood.
Female Lewis rats were purchased from CHARLES RIVER LABORATORIES JAPAN, INC.
Rat IL-6 was purchased from PeproTech.
Each compound was used at three consecutive concentrations of 1 μM, 0.1 μM and 0.01 μM, or 10 μM, 1 μM and 0.1 μM.
The concentration of rat IL-6 was 100 ng/mL.
The concentration of FITC-CD3 was 1 μg/mL.
(§12) The blood and a compound were put into each Costar assay block tube and incubated at 37° C. for 15 minutes, then incubated with FITC-CD3 at 37° C. for 15 minutes, incubated with rat IL-6 at 37° C. for 15 minutes and incubated with 10 times as much of BD Phosflow Lyse/Fix Buffer as the blood at 37° C. for 12 minutes. Centrifugal separation was carried out at 5,884 m/s^2 for 6 minutes with a centrifugal separator to precipitate the cells, and the supernatants were removed.
(§13) The cell pellets were washed with 1 mL of phosphate buffered saline (PBS), then incubated with 0.6 mL of BD Phosflow Perm Buffer III on ice for 30 minutes and centrifuged at 5,884 m/s^2 for 6 minutes by means of a centrifugal separator to precipitate the cells, and the supernatants were removed.
(§14) The cell pellets were washed with 0.3 mL of BD Pharmingen Stain Buffer and incubated with 0.1 mL of BD Pharmingen Stain Buffer and 10 μL of BD Phosflow STAT-1 at room temperature for 30 minutes. After addition of 0.1 mL of BD Pharmingen Stain Buffer, the cells were centrifuged at 5,884 m/s^2 for 6 minutes by means of a centrifugal separator to precipitate the cells, and the supernatants were removed.
(§15) The cell pellets were washed with 0.3 mL of BD Pharmingen Stain Buffer, and 0.12 mL of BD Pharmingen Stain Buffer was added. The cytokine signaling inhibition was measured with FACS Cantoll (manufactured by BD) by detecting FITC-labeled CD3 positive T cells and detecting the amount of phosphated STAT-1 protein in the cells as the PE fluorescence. From the plot of the logarithm of a compound concentration and inhibitory activity, the IC50 value was calculated.

[2] = system: cytokine signaling via JAK; experiment: Signal assay in human whole blood (STAT phosphorylation assay); assay type: cell-based; details: T-cell, human IL-6 100 ng/mL, phosphated STAT-1 in CD3 positive T cells
Method: 3. Signal Assay in Human Whole Blood
The inhibitory activities of the compounds of the present invention obtained in Synthetic Examples 3 to 7 against cytokine signaling via JAK were measured by STAT phosphorylation assay using human whole blood.
Human whole blood was collected from healthy humans.
Human IL-6 was purchased from R&D systems.
Each compound was used at six concentrations of 3 μM, 1.5 μM, 0.75 μM, 0.38 μM, 0.19 μM and 0.093 μM, at six concentrations of 2 μM, 1 μM, 0.5 μM, 0.25 μM, 0.13 μM and 0.063 μM, or at six concentrations of 10 μM, 5 μM, 2.5 μM, 1.25 μM, 0.63 μM and 0.31 μM.
The concentration of human IL-6 was 100 ng/mL.
as §12, with “Human blood and” for “The blood and”, “C. for 30 minutes, then” for “C. for 15 minutes, then”, “incubated with human IL-6 at” for “incubated with FITC-CD3 at 37° C. for 15 minutes, incubated with rat IL-6 at”
as §13
as §14, with “Pharmingen Stain Buffer, 10 μL” for “Pharmingen Stain Buffer and 10 μL”, “Phosflow STAT-1 and 5 μL of FITC-hCD3 at room” for “Phosflow STAT-1 at room”
as §15

Sequence of JAK3 (P52333 whole entry): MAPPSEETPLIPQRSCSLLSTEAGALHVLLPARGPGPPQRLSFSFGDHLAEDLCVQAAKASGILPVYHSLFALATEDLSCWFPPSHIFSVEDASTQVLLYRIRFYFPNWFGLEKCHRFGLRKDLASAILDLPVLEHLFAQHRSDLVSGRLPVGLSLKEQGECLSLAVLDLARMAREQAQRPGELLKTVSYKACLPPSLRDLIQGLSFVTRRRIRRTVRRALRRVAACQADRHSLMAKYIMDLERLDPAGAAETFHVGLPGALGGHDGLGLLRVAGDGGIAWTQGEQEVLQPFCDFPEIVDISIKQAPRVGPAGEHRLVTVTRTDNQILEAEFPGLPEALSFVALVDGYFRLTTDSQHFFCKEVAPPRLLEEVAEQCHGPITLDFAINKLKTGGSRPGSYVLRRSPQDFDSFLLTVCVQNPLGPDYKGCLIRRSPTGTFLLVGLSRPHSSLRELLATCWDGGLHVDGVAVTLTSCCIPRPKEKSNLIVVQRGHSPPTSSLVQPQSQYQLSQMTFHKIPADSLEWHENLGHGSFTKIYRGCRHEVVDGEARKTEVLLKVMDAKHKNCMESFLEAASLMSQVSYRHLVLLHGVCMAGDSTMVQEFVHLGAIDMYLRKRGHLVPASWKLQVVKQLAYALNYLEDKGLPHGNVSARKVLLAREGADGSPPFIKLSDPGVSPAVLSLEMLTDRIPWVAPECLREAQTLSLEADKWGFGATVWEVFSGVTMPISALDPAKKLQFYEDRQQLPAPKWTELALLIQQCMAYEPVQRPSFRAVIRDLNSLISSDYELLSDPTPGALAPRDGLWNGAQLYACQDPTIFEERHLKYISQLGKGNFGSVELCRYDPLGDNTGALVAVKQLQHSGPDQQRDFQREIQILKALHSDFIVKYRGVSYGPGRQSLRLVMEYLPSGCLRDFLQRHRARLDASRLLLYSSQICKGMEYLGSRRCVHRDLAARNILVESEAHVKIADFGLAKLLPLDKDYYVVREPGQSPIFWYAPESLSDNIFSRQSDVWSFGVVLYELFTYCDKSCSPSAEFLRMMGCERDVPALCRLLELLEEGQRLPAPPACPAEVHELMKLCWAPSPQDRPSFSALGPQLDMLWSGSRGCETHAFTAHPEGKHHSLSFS
Sequence of JAK1 (P23458 whole entry): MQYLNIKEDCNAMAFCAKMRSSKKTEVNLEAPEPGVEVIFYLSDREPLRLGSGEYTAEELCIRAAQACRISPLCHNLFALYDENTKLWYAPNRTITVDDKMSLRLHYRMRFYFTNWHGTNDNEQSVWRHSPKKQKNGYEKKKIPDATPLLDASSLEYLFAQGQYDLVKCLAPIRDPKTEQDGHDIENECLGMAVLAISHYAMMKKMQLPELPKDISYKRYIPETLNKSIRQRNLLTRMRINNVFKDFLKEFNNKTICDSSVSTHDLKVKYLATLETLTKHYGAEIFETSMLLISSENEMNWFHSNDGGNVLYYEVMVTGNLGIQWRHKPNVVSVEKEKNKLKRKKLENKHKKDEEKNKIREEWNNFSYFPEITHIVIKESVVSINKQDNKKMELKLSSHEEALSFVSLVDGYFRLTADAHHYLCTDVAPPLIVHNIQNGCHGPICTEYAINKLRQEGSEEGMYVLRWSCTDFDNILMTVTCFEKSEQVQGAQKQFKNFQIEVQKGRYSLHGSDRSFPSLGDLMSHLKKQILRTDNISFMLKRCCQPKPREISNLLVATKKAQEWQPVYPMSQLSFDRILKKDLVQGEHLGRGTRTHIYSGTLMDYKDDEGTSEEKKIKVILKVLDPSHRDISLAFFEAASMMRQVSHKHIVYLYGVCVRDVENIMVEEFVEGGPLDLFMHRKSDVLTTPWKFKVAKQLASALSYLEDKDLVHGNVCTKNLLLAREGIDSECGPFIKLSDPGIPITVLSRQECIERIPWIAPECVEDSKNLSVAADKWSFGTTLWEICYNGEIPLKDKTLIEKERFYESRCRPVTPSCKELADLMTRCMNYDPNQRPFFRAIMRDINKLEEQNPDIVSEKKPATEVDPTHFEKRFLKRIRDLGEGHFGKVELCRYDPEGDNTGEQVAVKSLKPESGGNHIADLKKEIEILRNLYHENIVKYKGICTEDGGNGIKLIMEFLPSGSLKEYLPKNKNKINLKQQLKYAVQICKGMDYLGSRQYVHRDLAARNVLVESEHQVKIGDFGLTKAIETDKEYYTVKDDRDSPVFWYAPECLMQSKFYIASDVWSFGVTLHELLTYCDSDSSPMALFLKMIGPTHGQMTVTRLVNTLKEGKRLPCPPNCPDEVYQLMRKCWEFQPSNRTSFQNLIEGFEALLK
Sequence of Tyk2 (P29597 whole entry): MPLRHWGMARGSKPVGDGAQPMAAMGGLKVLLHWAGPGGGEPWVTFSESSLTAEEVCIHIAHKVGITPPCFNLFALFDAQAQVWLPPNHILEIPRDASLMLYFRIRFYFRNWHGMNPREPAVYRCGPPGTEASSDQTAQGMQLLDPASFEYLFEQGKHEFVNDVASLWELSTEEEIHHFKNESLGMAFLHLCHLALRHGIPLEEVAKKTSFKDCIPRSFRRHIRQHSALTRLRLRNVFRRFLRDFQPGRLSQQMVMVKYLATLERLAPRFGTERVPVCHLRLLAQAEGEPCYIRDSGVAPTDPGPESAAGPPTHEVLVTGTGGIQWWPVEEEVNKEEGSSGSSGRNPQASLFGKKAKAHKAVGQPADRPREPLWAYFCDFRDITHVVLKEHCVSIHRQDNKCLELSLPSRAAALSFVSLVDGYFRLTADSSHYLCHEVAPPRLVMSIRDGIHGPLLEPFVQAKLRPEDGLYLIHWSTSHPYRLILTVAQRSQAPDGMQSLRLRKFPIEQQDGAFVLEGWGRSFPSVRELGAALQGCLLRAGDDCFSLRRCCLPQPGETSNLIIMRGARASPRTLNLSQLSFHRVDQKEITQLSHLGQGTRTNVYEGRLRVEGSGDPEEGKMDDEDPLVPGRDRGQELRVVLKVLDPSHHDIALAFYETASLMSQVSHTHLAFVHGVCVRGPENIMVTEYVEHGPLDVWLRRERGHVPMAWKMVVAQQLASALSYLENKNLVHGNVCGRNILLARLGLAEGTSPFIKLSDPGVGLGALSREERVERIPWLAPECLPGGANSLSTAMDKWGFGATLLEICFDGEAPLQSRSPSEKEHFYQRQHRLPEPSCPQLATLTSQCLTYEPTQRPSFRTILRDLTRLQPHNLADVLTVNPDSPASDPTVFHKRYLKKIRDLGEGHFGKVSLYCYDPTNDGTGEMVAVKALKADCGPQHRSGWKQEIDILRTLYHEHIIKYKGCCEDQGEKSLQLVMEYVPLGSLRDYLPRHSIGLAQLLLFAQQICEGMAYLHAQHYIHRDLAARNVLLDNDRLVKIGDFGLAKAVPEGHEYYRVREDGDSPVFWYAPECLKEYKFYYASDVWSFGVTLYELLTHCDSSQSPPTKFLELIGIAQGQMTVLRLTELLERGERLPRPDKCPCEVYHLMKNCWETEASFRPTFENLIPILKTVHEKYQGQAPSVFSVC
Sequence of JAK2 (O60674 whole entry): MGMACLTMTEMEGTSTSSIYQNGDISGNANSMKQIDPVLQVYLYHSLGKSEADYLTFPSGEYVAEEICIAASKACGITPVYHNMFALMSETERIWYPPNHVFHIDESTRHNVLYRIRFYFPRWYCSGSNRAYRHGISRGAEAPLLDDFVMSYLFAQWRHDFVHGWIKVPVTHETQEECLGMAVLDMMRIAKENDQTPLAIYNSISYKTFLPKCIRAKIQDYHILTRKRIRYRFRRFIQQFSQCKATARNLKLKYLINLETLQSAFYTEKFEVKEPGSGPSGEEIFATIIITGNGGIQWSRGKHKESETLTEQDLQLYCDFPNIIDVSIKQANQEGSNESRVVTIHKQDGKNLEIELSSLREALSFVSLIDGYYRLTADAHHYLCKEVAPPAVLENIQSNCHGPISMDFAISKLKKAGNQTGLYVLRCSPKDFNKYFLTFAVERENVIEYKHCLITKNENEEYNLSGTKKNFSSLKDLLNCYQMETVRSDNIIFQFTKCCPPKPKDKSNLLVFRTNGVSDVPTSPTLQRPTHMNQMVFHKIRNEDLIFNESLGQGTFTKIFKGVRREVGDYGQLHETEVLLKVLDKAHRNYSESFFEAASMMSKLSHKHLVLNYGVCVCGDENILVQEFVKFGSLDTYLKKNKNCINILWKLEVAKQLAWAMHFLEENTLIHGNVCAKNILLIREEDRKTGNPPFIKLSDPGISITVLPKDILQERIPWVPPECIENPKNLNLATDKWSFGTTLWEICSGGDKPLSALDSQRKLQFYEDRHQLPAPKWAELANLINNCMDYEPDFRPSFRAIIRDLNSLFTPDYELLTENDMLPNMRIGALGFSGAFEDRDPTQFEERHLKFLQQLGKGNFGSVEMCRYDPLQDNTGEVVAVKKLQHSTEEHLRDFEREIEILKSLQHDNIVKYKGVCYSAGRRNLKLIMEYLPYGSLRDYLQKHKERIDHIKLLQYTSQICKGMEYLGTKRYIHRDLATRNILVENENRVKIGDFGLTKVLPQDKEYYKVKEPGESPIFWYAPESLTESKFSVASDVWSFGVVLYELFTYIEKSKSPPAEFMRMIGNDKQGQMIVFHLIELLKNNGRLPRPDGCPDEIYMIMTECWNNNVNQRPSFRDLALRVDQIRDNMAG

IC50 (JAK1) [nM] | IC50 (JAK2) [nM] | IC50 (JAK3) [nM] | IC50 (Tyk2) [nM] | IC50 [1] [nM] | IC50 [2] [nM] | SMILES
0.99 | 4.6 | 15 | 22 | 390 |  | N#CC[C@@H](NC[C@H]1CC[C@H](n2c(=O)[nH]c(=O)c3cnc4[nH]ccc4c32)CC1)C(F)(F)F [Synthetic Example 1, (R)-3-({[trans-4-(2,4-Dioxo-2,3,4,7-tetrahydro-1H-pyrrolo[3′,2′:5,6]pyrido[4,3-d]pyrimidin-1-yl)cyclohexyl]methyl}amino)-4,4,4-trifluorobutanenitrile]
0.41 | 1.9 | 7.1 | 39 |  | 300 | Cc1cnn(C[C@H]2CC[C@H](n3ccc(=O)c4cnc5[nH]ccc5c43)CC2)c1 [Synthetic Example 4, 1-{trans-4-[(4-Methyl-1H-pyrazol-1-yl)methyl]cyclohexyl}-1H-pyrrolo[2,3-h][1,6]naphthyridin-4(7H)-one]
0.74 | 2 | 5.1 | 11 |  | 150 | N#CC[C@@H](OC[C@H]1CC[C@H](n2ccc(=O)c3cnc4[nH]ccc4c32)CC1)C(F)(F)F [Synthetic Example 7, (R)-4,4,4-Trifluoro-3-{[trans-4-(4-oxo-4,7-dihydro-1H-pyrrolo[2,3-h][1,6]naphthyridin-1-yl)cyclohexyl]methoxy}butanenitrile]
0.68 | 1.6 | 2.5 | 19 |  | 130 | O=c1ccn([C@H]2CC[C@H](COCCC(F)(F)F)CC2)c2c1cnc1[nH]ccc12 [Synthetic Example 6, 1-{trans-4-[(3,3,3-Trifluoropropoxy)methyl]cyclohexyl}-1H-pyrrolo[2,3-h][1,6]naphthyridin-4(7H)-one]
 |  |  |  | 1300 |  | N#CCCN(CCC#N)CC1CCC(n2c(=O)[nH]c(=O)c3cnc4[nH]ccc4c32)CC1 (stereo not shown) [Compound B]
1.7 | 5.1 | 10 | 18 |  | 440 | N#CC[C@@H](NC[C@H]1CC[C@H](n2ccc(=O)c3cnc4[nH]ccc4c32)CC1)C(F)(F)F [Synthetic Example 3, (R)-4,4,4-Trifluoro-3-({[trans-4-(4-oxo-4,7-dihydro-1H-pyrrolo[2,3-h][1,6]naphthyridin-1-yl)cyclohexyl]methyl}amino)butanenitrile]
0.59 |  | 2.7 | 10 |  | 170 | O=c1ccn([C@H]2CC[C@H](COCC(F)(F)F)CC2)c2c1cnc1[nH]ccc12 [Synthetic Example 5, 1-{trans-4-[(2,2,2-Trifluoroethoxy)methyl]cyclohexyl}-1H-pyrrolo[2,3-h][1,6]naphthyridin-4(7H)-one]
 |  |  |  |  | 5900 | O=C1CCN(C2CCC(CO)CC2)c2c1cnc1[nH]ccc21 (stereo not shown) [Compound F, reference compound]
0.35 | 1.5 | 2.9 | 26 | 270 |  | O=c1[nH]c(=O)n([C@H]2CC[C@H](COCCC(F)(F)F)CC2)c2c1cnc1[nH]ccc12 [Synthetic Example 2, 1-{trans-4-[(3,3,3-Trifluoropropoxy)methyl]cyclohexyl}-1H-pyrrolo[3′,2′:5,6]pyrido[4,3-d]pyrimidine-2,4(3H,7H)-dione]
 |  |  |  |  | 6500 | COC1CCC(n2ccc(=O)c3cnc4[nH]ccc4c32)CC1 (stereo not shown) [Compound G, reference compound]
 |  |  |  |  | 7600 | Cc1nc(CN2CCC(n3ccc(=O)c4cnc5[nH]ccc5c43)CC2)cs1 [Compound J, reference compound]
 |  |  |  | 2400 |  | O=c1[nH]c(=O)n(C2CCC(CNCC(F)(F)F)CC2)c2c1cnc1[nH]ccc12 (stereo not shown) [A]
 |  |  |  |  | 1300 | O=c1ccn(C2CCCCC2)c2c1cnc1[nH]ccc12 [Compound E, reference compound]
